Values of other authors, collected in patent US20110075702A1, “THERMAL SENSING EQUIPMENT AND THERMAL SENSING PROCESS” (JOHNSON CONTROLS TECHNOLOGY COMPANY, priority 2007, published 2011).

Tests used:
[1] = @ 20° C. (68° F.)

CC(=O)OCC(C)OC(C)=O (stereo not shown) [THERMAL FLUID #2, propylene glycol diacetate]
Solubility in Water [1]: 77 mg/mL | NFPA Fire (NFPA fire diamond Flammability Value): 2 | NFPA Health (NFPA fire diamond Health Value): 1 | NFPA Reactivity (NFPA fire diamond Reactivity Value): 0
